Inconclusive results are not listed.
Each compound was assayed on C2C12 myotubes + simvastatin, ATP luminescence, 48 h (assay: suppressors of statin myotoxicity in myotubes, dose response, cell-based, C2C12 myotubes, ATP luminescence, cherry pick (AID 624405);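 also: myotubes are challenged with simvastatin at 10 µM to lower ATP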).
Work on `CC(C)(C)c1ccc(Cn2nnc3c(=O)[nH]c(C4CCN(C(=O)Cc5cccs5)CC4)nc32)cc1` yielded an AC40 of 3.99 µM.
Work on `CCSC1(SCC)N=C(N)C2(C#N)C(c3ccc(F)cc3)C12C#N` (stereo not drawn) yielded an AC40 of 6.36 µM.
With `C[C@@H]1CN([C@@H](C)CO)C(=O)Cc2cc(NC(=O)CCCCCC(=O)Nc3ccccc3N)ccc2O[C@H]1CN(C)Cc1ccc(-c2ccccc2)cc1` the AC40 was 10.7 µM.
`Cc1cc(C)c(C)c(S(=O)(=O)NCC(=O)N2CCCC2)c1C` was tested, and the AC40 was 13.2 µM.
Compound `COc1ccc(N(Cc2cc3ccccc3[nH]c2=O)S(=O)(=O)c2ccccc2)cc1` has an AC40 of 5.81 µM.
For `C[C@H](CO)N1C[C@H](C)[C@H](CN(C)Cc2ccc(C(=O)Nc3ccccc3N)cc2)Oc2ccc(NC(=O)Nc3cccc4ccccc34)cc2C1=O`, the AC40 was 8.83 µM.
Compound `C[C@H]1C[C@@H](C)C(=O)[C@@H]([C@H](O)CC2CC(=O)NC(=O)C2)C1` has an AC40 of under 0.16 µM.
For `C[C@@H]1CN([C@H](C)CO)C(=O)c2cc(NC(=O)Cc3cn(C)c4ccccc34)ccc2O[C@@H]1CN(C)Cc1ccc(C(=O)Nc2ccccc2N)cc1`, the AC40 was 9.69 µM.
Work on `COc1cc(/C=C(/C(=O)c2cccs2)c2nc3ccccc3[nH]2)cc(OC)c1O` yielded an AC40 of 1.38 µM.
Compound `CC1(Cc2ccc(Cl)cc2)C(=O)Nc2ccc(-c3cccnc3)cc21` (stereo not drawn) has an AC40 of 15.8 µM.
`Cc1ccc(C2OC(=O)c3ccccc32)cc1` (stereo not drawn) was tested, and the AC40 was 2.21 µM.
Compound `C[C@H](CO)N1C[C@H](C)[C@@H](CN(C)Cc2ccc(C(F)(F)F)cc2)Oc2ccc(NC(=O)CCCCCC(=O)Nc3ccccc3N)cc2CC1=O` has an AC40 of 8.51 µM.
In the case of `O=c1[nH]ncc2c3ccccc3n(Cc3ccccc3)c12`, the AC40 is reported as 5.26 µM.
`COc1ccc2c(Cl)c(-c3nnc(SCC(=O)c4ccccc4)n3C)sc2c1` was tested, and the AC40 was 1.13 µM.
`O=C(C[C@H]1CC[C@@H]2[C@H](COC[C@H](O)CN2CCC(F)(F)F)O1)NCc1ccc(Oc2ccccc2)cc1` was tested, and the AC40 was 7.6 µM.
`C[C@@H]1CN([C@@H](C)CO)C(=O)c2cc(NC(=O)Nc3cccc4ccccc34)ccc2O[C@H]1CN(C)Cc1ccc(C(=O)Nc2ccccc2N)cc1` showed an AC40 of 15.2 µM.
Compound `CCOC(=O)Cc1csc(NC(=O)CC(C)(C)C)n1` has an AC40 of 2.56 µM.
With `C[C@H]1CN([C@@H](C)CO)C(=O)Cc2cc(NC(=O)Nc3cccc4ccccc34)ccc2O[C@H]1CN(C)Cc1ccc(C(=O)Nc2ccccc2N)cc1` the AC40 was 2.05 µM.
In the case of `CC(C)OC(=O)N(C)C[C@@H]1OCc2ccccc2-c2c(n(C)c3ccccc23)C(=O)N([C@H](C)CO)C[C@H]1C`, the AC40 is reported as 18.1 µM.
Compound `CS(=O)(=O)N1CCN(C(=O)c2cc(-c3ccncc3)nc3ccc(Cl)cc23)CC1` has an AC40 of 11.4 µM.
`CCOCCCN1CN(S(=O)(=O)c2ccc(Cl)cc2)c2nc3ccccc3nc21` showed an AC40 of 1.87 µM.
Compound `CCn1c(-c2ccc(-c3ccccc3)cc2)c[nH]c1=S` has an AC40 of 3.72 µM.
Work on `Cc1cccn2c(=O)c(C=O)c(N3CCCCCC3)nc12` yielded an AC40 of 15.1 µM.
`O=S(=O)(Nc1nc2c(s1)CCCC2)c1ccc2ccccc2c1` showed an AC40 of 5.94 µM.
Compound `COc1cccc(OC)c1C(=O)N1CCN(S(=O)(=O)c2ccc(C)cc2)CC1` has an AC40 of 0.233 µM.
With `C=CCOc1ccc(Br)cc1/C=N/O` the AC40 was 17.9 µM.
For `C[C@@H]1CN([C@@H](C)CO)C(=O)Cc2cc(N(C)C)ccc2O[C@@H]1CN(C)Cc1ccc(Cl)c(Cl)c1`, the AC40 was 9.93 µM.
`Nc1nonc1-c1nc2ccccc2n1Cc1ccc(F)cc1Cl` showed an AC40 of 0.892 µM.
With `CCS(=O)(=O)c1ncc(Cl)c(C(=O)Nc2ccccc2OC)n1` the AC40 was 2.12 µM.
`Cc1cc2c3c(c1)C1(SCC(=O)N1c1ccc(F)cc1)C(=O)N3C(C)(C)CC2C` (stereo not drawn) was tested, and the AC40 was 4.82 µM.
`C[C@H]1CN([C@@H](C)CO)C(=O)Cc2cc(NC(=O)CCCCCC(=O)Nc3ccccc3N)ccc2O[C@H]1CN(C)Cc1ccc(Cl)c(Cl)c1` gave an AC40 of 12.6 µM.
In the case of `COc1ccc(S(=O)(=O)Nc2ccc3c(c2)CC(=O)N([C@H](C)CO)C[C@H](C)[C@@H](CN(C)Cc2ccc(Cl)c(Cl)c2)O3)cc1`, the AC40 is reported as 15.9 µM.
`COc1ccc(CC2NCC(O)C2OC(C)=O)cc1` (stereo not drawn) was tested, and the AC40 was 0.275 µM.
Work on `COc1ccc(N2CCN(C(=O)c3ccc4c(c3)CCN4S(=O)(=O)c3ccccc3)CC2)cc1` yielded an AC40 of 16.2 µM.
`O=C1N2CCCc3cccc(c32)C12Nc1ccccc1S2` (stereo not drawn) showed an AC40 of 14.5 µM.
`C[C@H](CO)N1C[C@H](C)[C@@H](CN(C)S(=O)(=O)c2ccc(Cl)cc2)Oc2ccc(NC(=O)NC3CCCCC3)cc2CC1=O` showed an AC40 of 10.3 µM.
For `CCCCNc1oc(-c2cccs2)nc1S(=O)(=O)c1ccccc1`, the AC40 was 7.73 µM.
With `O=C(CSCc1cnn(-c2ccccc2)c1-n1cccc1)NCc1cccs1` the AC40 was 18.9 µM.
Compound `C[C@H]1CN([C@@H](C)CO)S(=O)(=O)c2ccc(C#CC3CC3)cc2O[C@H]1CN(C)C(=O)Nc1cc(F)ccc1F` has an AC40 of 3.66 µM.
Compound `Cc1onc(-c2ccccc2Cl)c1C(=O)NCc1nc(-c2ccccc2)no1` has an AC40 of 8.26 µM.
Compound `CCOc1c(S(=O)(=O)N2CCCC2)ccc(Cl)c1Cl` has an AC40 of 5.43 µM.
`CC1CCN(c2nc3c(c(=O)[nH]c(=O)n3C)n2CCCc2ccccc2)CC1` gave an AC40 of 4.71 µM.
`C[C@H](CO)N1C[C@H](C)[C@H](CN(C)Cc2ccc(C(=O)Nc3ccccc3N)cc2)Oc2ccc(NC(=O)Cc3cn(C)c4ccccc34)cc2C1=O` was tested, and the AC40 was 6.08 µM.
For `C[C@H](CO)N1C[C@H](C)[C@@H](CN(C)Cc2ccc(Oc3ccccc3)cc2)Oc2c(NC(=O)Nc3cccc4ccccc34)cccc2C1=O`, the AC40 was 7.98 µM.
Compound `NS(=O)(=O)OCC(Cc1ccccc1)N1C(=O)c2ccccc2C1=O` (stereo not drawn) has an AC40 of 14.6 µM.
`COc1ccc(S(=O)(=O)Nc2cccc3c2O[C@H](CN(C)C(=O)Nc2ccc(F)cc2)[C@H](C)CN([C@@H](C)CO)C3=O)cc1` showed an AC40 of 6.89 µM.
Compound `O=C(CCNS(=O)(=O)c1ccc(Br)cc1)NCc1ccc2c(c1)OCO2` has an AC40 of 14.8 µM.
Compound `C[C@@H]1CN([C@@H](C)CO)C(=O)c2cc(NS(=O)(=O)c3ccc(Cl)cc3)ccc2O[C@H]1CN(C)C(=O)Nc1cccc2ccccc12` has an AC40 of 9.49 µM.
With `O=C1c2ccccc2-c2onc3ccc(Oc4ccccc4)c1c23` the AC40 was 5.91 µM.
`CCCC(c1nnnn1Cc1ccc(OC)cc1)N1CCN(c2ccccc2)CC1` (stereo not drawn) showed an AC40 of 5.18 µM.
Compound `C[C@H]1CN([C@@H](C)CO)C(=O)c2cc(NC(=O)Cc3cn(C)c4ccccc34)ccc2O[C@H]1CN(C)Cc1ccc(C(=O)Nc2ccccc2N)cc1` has an AC40 of 3.17 µM.
`N#Cc1nc(-c2ccco2)oc1N1CCCC1` showed an AC40 of 0.199 µM.
Work on `CC(C)C(=O)N(c1ccc2oc(=O)sc2c1)S(=O)(=O)c1ccccc1` yielded an AC40 of 3.85 µM.
In the case of `COc1ccc(S(=O)(=O)N2CCCCC2)cc1C(C)C`, the AC40 is reported as 8.77 µM.
Compound `O=C(CNc1cccc(F)c1)N1CCc2ccccc2C1` has an AC40 of 3.26 µM.
`COc1ccc(S(=O)(=O)N(C)C[C@@H]2Oc3ccc(NS(=O)(=O)c4ccc(Cl)cc4)cc3CC(=O)N([C@@H](C)CO)C[C@H]2C)cc1` was tested, and the AC40 was 11.8 µM.
`C[C@H]1CN([C@@H](C)CO)C(=O)Cc2cc(NS(=O)(=O)c3ccc(Cl)cc3)ccc2O[C@@H]1CN(C)CC1CCCCC1` showed an AC40 of 15.1 µM.
`C[C@@H]1CN([C@H](C)CO)C(=O)Cc2cc(NC(=O)CCCCCC(=O)Nc3ccccc3N)ccc2O[C@@H]1CN(C)CC1CCCCC1` was tested, and the AC40 was 15.4 µM.
Compound `O=C(OCc1nc2ccccc2s1)c1cnccn1` has an AC40 of 9.58 µM.
Work on `Cc1c(NC(=O)CSc2ccccn2)c(=O)n(-c2ccccc2)n1C` yielded an AC40 of 10.7 µM.
`Cc1ccc(S(=O)(=O)N2CCN(C(=O)c3cccs3)CC2)cc1C` gave an AC40 of 9.44 µM.
`CC(=O)C(=Nc1ccccc1Cl)NNc1ccc(Cl)cc1` was tested, and the AC40 was 6.58 µM.
With `COc1ccc(S(=O)(=O)Nc2ccc3c(c2)OCCO3)cc1Cl` the AC40 was 1.46 µM.
`C=CCn1c(=O)[nH]c(=O)c2c(N)c(C(=O)c3ccc(OC)cc3)sc21` gave an AC40 of 14.5 µM.
For `CN(c1ccc(Cl)cc1)c1cc(=O)n(C)c2ccccc12`, the AC40 was under 0.16 µM.
In the case of `C[C@H](CO)N1C[C@H](C)[C@@H](CN(C)Cc2ccc(C(F)(F)F)cc2)Oc2ccc(NS(=O)(=O)c3ccc(F)cc3)cc2CC1=O`, the AC40 is reported as 18.2 µM.
Work on `Cc1nn2c3ccccc3n(Cc3ccccc3)c2nc1=O` yielded an AC40 of 19 µM.
For `COc1ccc(Nc2nc3ccc(C)cn3c(=O)c2/C=N/O)cc1`, the AC40 was 15.2 µM.
`COC(=O)c1cc(=O)n(CCc2ccccc2F)c(=Nc2ccc(F)c(Cl)c2)s1` was tested, and the AC40 was 2.81 µM.
`Cc1ccc(S(=O)(=O)N(C)C[C@@H]2Oc3ccc(NS(=O)(=O)c4ccc(Cl)cc4)cc3C(=O)N([C@H](C)CO)C[C@@H]2C)cc1` gave an AC40 of 8.22 µM.
For `C[C@H](CO)N1C[C@H](C)[C@H](CN(C)C(=O)Nc2ccc(F)cc2)Oc2ncc(C#Cc3ccc(C(F)(F)F)cc3)cc2C1=O`, the AC40 was 13.5 µM.
Work on `CC(C)CC#Cc1cnc2c(c1)C(=O)N([C@H](C)CO)C[C@H](C)[C@@H](CN(C)C(=O)Cc1ccccc1)O2` yielded an AC40 of 9.7 µM.
`CC(C)Nc1ncnc2c1cnn2Cc1ccc(Cl)cc1` was tested, and the AC40 was 0.544 µM.

— PubChem BioAssay AID624405 (Broad Institute, 2012)
